# Legend:
# [1] = phosphate-buffered saline; below 10 μg mL^−1 estimated by turbidimetric screening
# Description: The solubility of all the TPP derivatives was determined in phosphate-buffered saline (PBS) (Table S3).
# [2] = system: E. faecalis OG1RF (ATCC 47077); experiment: Minimum bactericidal concentration (MBC); type: cell-based; conditions: strain EF; unit printed in b207 only
# Description: (§1) To study the extent to which TPP-COEs can effectively kill bacteria, bacteria cells treated with DM6P at varying concentrations were plated onto Tryptic Soy Agar (TSA) and the minimum bactericidal concentration (MBC), where complete eradication of the inoculum occurred, was determined (Table 5). MBC values ranged from 2 μg mL^−1 towards MRSA to 8 μg mL^−1 towards PAO1 and stayed within a two to four-fold range of the MIC values for all strains tested.
# (§2) Bacteria samples treated with DM6P at varying concentrations from a broth microdilution method in a 96-well plate according to the methods for determining the MIC. Colonies were plated on TSB agar plates with 20 μL inoculation and the plates incubated at 37° C. overnight. […] All measurements were performed in triplicate.
# [3] = system: K. pneumoniae (ATCC BAA1705); experiment: Minimum bactericidal concentration (MBC); type: cell-based; conditions: strain CRKP; unit printed in b207 only
# Description: as §1, §2
# [4] = system: Methicillin-resistant S. aureus (ATCC BAA1717); experiment: Minimum bactericidal concentration (MBC); type: cell-based; conditions: strain MRSA; unit printed in b207 only
# Description: as §1, §2
# PAO1 = experiment: Membrane depolarization assay (DiSC3(5)); type: cell-based, P. aeruginosa; conditions: DiSC3(5)-encapsulated PAO1 cells
# Source text: The interactions of DM6P with various bacterial cell membranes were first investigated through spectrometric methods. In normal cells, compartmentalization of the intracellular space by the lipid bilayer enables the maintenance of a transmembrane potential, which is necessary for regular cell division and energy production. The membrane-potential sensitive dye 3,3′-dipropylthiadicarbocyanine iodide (DiSC3(5)) accumulates within the membranes of healthy, polarized cells where its fluorescence is self-quenched. Depolarization of the membrane necessary to maintain this gradient causes the release of this dye, resulting in an increase in fluorescence intensity. […]
# Determination of the extent of depolarization of bacterial cell membranes was carried out using a voltage sensitive dye DiSC3(5) (ThermoFisher, USA). The dye is able to accumulate within polarized healthy cell membranes with resulting quenched fluorescence. When the membrane is depolarized, subsequent ion permeabilization releases the dye from the membrane and gives rise to enhanced fluorescence intensity.^3 The assay was performed according to a modified protocol reported previously. […] The plate was incubated in the dark for 30 minutes, with the signal measured every 5 minutes until a stable baseline was observed. COEs were then added at varying concentrations and the fluorescence intensity was measured over time at 37° C. […]
# [5] = system: Staphylococcus pseudintermedius; experiment: Mouse wound infection model, S. pseudintermedius; type: in vivo, mice; conditions: for average CFU: S. pseudintermedius mouse wound
# Source text: Staphylococcus pseudintermedius (SP) is particularly pathogenic towards dogs, with skin infections such as pyoderma being characterized by a lengthy treatment period and high treatment failure due to antimicrobial resistance. Here, we show high in vivo antimicrobial efficacy of compounds of FIG. 11 in a mouse wound infection model, featuring over a 3-log reduction in bacterial load at low concentrations. The grouping tested with saline has an average CFU of 5.16×10^8 CFU/g. The grouping tested with DM6P (0.1 mg/kg) has an average CFU of 1.62×10^7 CFU/g. The grouping tested with DM6P (0.25 mg/kg) has an average CFU of 5.51×10^5 CFU/g.
# For testing against Staphylococcus pseudintermedius, C57BL/6[SPF] mice (female, 18-20 g) were first acclimated, weighed and grouped based on body weight into 3 groups. Mice were anaesthetized and the hair at the back will be shaved and removed. A 6 mm-diameter excisional wound was created on the back of each mouse, and log-phase Staphylococcus pseudintermedius (Sp strain) (in 5 μL PBS) will be inoculated onto the wound. A 3M tegaderm will be used to cover the wound site from contamination. 2 h post infection, the groups were tested with saline, DM6P (0.1 mg/kg) and DM6P (0.25 mg/kg) respectively, by adding directly to wound site. At 12 h and 24 h post infection, sampling and colony enumeration were conducted. At 24 h post infection, all mice were sacrificed and the wound tissue harvested into 1 mL PBS.
# MRSA = experiment: Transmission electron microscopy of treated cells; type: cell-based, S. aureus; conditions: 4 μg mL^−1 for 30 minutes
# Description: Damage to the bacterial cell membrane was observed by transmission electron microscopy (TEM). S. aureus cells were incubated with DM6P at 4 μg mL^−1 for 30 minutes and fixed immediately to preserve the membrane ultrastructure as close to the point of cell death as possible. […] In FIG. 7d, cytoplasmic membrane separation, which is a key hallmark of plasmolysis was also observed in a cell, presumably in an earlier stage of death prior to leakage of intracellular components. These observations are consistent with micrographs from cells treated by membrane active AMPs Gramicidin S and PGLa. Taken together, these morphological features are in line with the central idea that TPP-COEs induce damage to the cellular membrane, similar to previously studied COEs. Cellular leakage, protein delocalization and inactivation, and small-molecule permeation are downstream observations frequently associated with cell membrane perturbations.
# A mid-log culture of MRSA was treated either with DM6P at 4 Ig mL^−1 or PBS (control) and incubated for 30 minutes. Cells were then fixed with 4% glutaraldehyde at 4° C. overnight and collected by centrifugation (7000 rpm, 10 minutes). The cell pellets were post-fixed with 0.2% OsO4, serially dehydrated in a graded ethanol series, and embedded in an epoxy resin. […]
# P. aeruginosa = experiment: Resistance development by serial passaging at 0.5× MIC; type: cell-based
# Description: The non-specific action of membrane-active antibiotics lends itself to minimal development of resistance development due to the large metabolic burden involved, unlike traditional antibiotics with a well-defined enzymatic target. Based on this premise, we passaged bacteria incubated with DM6P, or ciprofloxacin (control), at 0.5× MIC to investigate the adaptation of bacteria towards external antibiotic stress. As a control, treatment of MRSA with ciprofloxacin gave rise to antibiotic-resistant mutants within 4 passages, see FIG. 4a. […] Combined with its broad spectrum of activity, this feature opens opportunities for the use of COE antimicrobial agents to address polymicrobial infections with a lower rate of emerging antibiotic resistance.
structure (smiles),measurement,setting,value
COc1cc(/C=C/c2ccc(OCCCCCC[P+](c3ccccc3)(c3ccccc3)c3ccccc3)c(OC)c2)ccc1OCCCCCC[P+](c1ccccc1)(c1ccccc1)c1ccccc1.[I-].[I-] [DM6P],solubility in PBS,[1],108 µg/mL
same,MBC,[2],4 µg/mL
same,MBC,[3],16 µg/mL
same,MBC,[4],2 µg/mL
same,depolarization of the bacterial membrane,PAO1,dose-dependent depolarization
same,average CFU,[5]; 0.1 mg/kg,1.62×10^7 CFU/g
same,average CFU,[5]; 0.25 mg/kg,5.51×10^5 CFU/g
same,tolerability (side effects),"[5]; mice, following compound administration",did not show any negative side effects
same,membrane damage by TEM,MRSA,visible cellular shrinkage and membrane disintegration
same,resistance development,P. aeruginosa,did not induce any observable resistant mutants

# Reference: patent publication US20260215432A1, “ANTIMICROBIAL CONJUGATED OLIGOELECTROLYTES AND METHODS THEREOF” (National University of Singapore, priority 2023, published 2026)
